Laboratory results taken from US20200055839A1 (priority 2017, published 2020).

What follows are compounds tested on NL-RLuc virus (assay: Inhibition of HIV replication (NL-RLuc virus, luciferase readout in MT-2 cells)). Details: Human immunodeficiency virus 1, MT2, 120 h, MT-2 cells infected with NL-RLuc virus, 5 days of incubation, 10% FBS, at least 2 experiments.
Format: cell-based
From the text: Inhibition of HIV Replication:
A recombinant NL-RLuc proviral clone was constructed in which a section of the nef gene form NL4-3 was replaced with the Renilla Luciferase gene. This virus is fully infectious and can undergo multiple cycles of replication in cell culture. In addition, the luciferous reporter provides a simple and easy method for quantitating the extent of virus growth and consequently, the antiviral activity of test compounds. The plasmid pNLRLuc contains the proviral NL-Rluc DNA cloned into pUC18 at the PvuII site. The NL-RLuc virus was prepared by transfection of 293T cells with the plasmid pNLRLuc. Transfections were performed using the LipofectAMINE PLUS kit form Invitrogen (Carlsbad, Calif.) according to the manufacturer and the virus generated was titered in MT-2 cells. For susceptibility analyses, the titrated virus was used to infect MT-2 cells in the presence of compound, and after 5 days of incubation, cells were processed and quantitated for virus growth by the amount of expressed luciferase. Assay media was RPMI 1640 supplemented with 10% heat inactivated fetal bovine serum (FBS), 100 units/ml penicillin G/100 units/ml streptomycin, 10 mM HEPES buffer pH 7.55 and 2 mM L-glutamine. The results form at least 2 experiments were used to calculate the EC50 values. Luciferase was quantitated using the Dual Luciferase kit form Promega (Madison, Wis.). Susceptibility of viruses to compounds was determined by incubation in the presence of serial dilutions of the compound. The 50% effective concentration (EC50) was calculated by using the exponential form of the median effect equation where (Fa)=1/[1+(ED50/drug conc.)^m](Johnson V A, Byington R T. Infectivity Assay. In Techniques in HIV Research. ed. Aldovini A, Walker B D. 71-76. New York: Stockton Press. 1990).

Question: How did the EC50 turn out when Cc1nc(-n2cncc2C)c(-c2ccc(OCCc3ccc(F)cc3)cc2)c(N2CCC(C)(C)CC2)c1[C@H](OC(C)(C)C)C(=O)O (single isomer, unassigned) [Example 55] was run?
Answer: 3 nM

Question: For Cc1cn(-c2nc(C)c([C@H](OC(C)(C)C)C(=O)O)c(N3CCC(C)(C)CC3)c2-c2ccc(OCCc3ccc(F)cc3)cc2)cn1 (single isomer, unassigned) [Example 56], which EC50 is on record?
Answer: 2 nM

Question: Cc1nc(N)c(-c2ccc(OCCc3ccc(F)cc3)c(F)c2F)c(N2CCC(C)(C)CC2)c1[C@H](OC(C)(C)C)C(=O)O (single isomer, unassigned) [Example 70] was tested. Which EC50 did it give?
Answer: 2 nM

Question: For Cc1nc(C(C)O)c(-c2ccc(OCCc3ccc(F)cc3)c(F)c2)c(N2CCC(C)(C)CC2)c1[C@H](OC(C)(C)C)C(=O)O (single isomer, unassigned) [Example 236], which EC50 is on record?
Answer: 2 nM

Question: Which EC50 does the source give for Cc1nc(C(C)(C)O)c(-c2ccc(OCCc3ccc(F)cc3)c(F)c2)c(N2CCC(C)(C)CC2)c1[C@H](OC(C)(C)C)C(=O)O (single isomer, unassigned) [Example 242] here?
Answer: 5 nM

Question: For Cc1ncc(-c2ccc(F)nc2OCCc2ccc(F)cc2)c(N2CCC(C)(C)CC2)c1[C@H](OC(C)(C)C)C(=O)O (single isomer, unassigned) [Example 262], which EC50 is on record?
Answer: 1130 nM

Question: Cc1ncc(-c2ccc(OCCc3ccc(F)cc3)nc2F)c(N2CCC(C)(C)CC2)c1[C@H](OC(C)(C)C)C(=O)O (single isomer, unassigned) [Example 263] was tested. Which EC50 did it give?
Answer: 3 nM

Question: Which EC50 does the source give for Cc1ncc(-c2ccc(OCC(C)C)nc2)c(N2CCC(C)(C)CC2)c1C(OC(C)(C)C)C(=O)O (stereo in doubt) [Example 409, (S)-2-(tert-butoxy)-2-(4-(4,4-dimethylpiperidin-1-yl)-6′-isobutoxy-6-methyl-[3,3′-bipyridin]-5-yl)acetic acid] here?
Answer: 1 nM

Question: How did the EC50 turn out when C=Cc1nc(C)c(-c2ccc(OCCc3ccc(F)cc3)cc2)c(N2CCC(C)(C)CC2)c1[C@H](OC(C)(C)C)C(=O)O [Example 1, (S)-2-(tert-Butoxy)-2-(4-(4,4-dimethylpiperidin-1-yl)-5-(4-(4-fluorophenethoxy)phenyl)-6-methyl-2-vinylpyridin-3-yl)acetic acid] was run?
Answer: 20 nM

Question: Cc1nc(N)c([C@H](OC(C)(C)C)C(=O)O)c(N2CCC(C)(C)CC2)c1-c1ccc(OCCc2ccc(F)cc2)cc1 [Example 2, (S)-2-(2-Amino-4-(4,4-dimethylpiperidin-1-yl)-5-(4-(4-fluorophenethoxy)phenyl)-6-methylpyridin-3-yl)-2-(tert-butoxy)acetic acid] was tested. Which EC50 did it give?
Answer: 5 nM

Question: Which EC50 does the source give for COc1nc(C)c(-c2ccc(OCCc3ccc(F)cc3)cc2)c(N2CCC(C)(C)CC2)c1[C@H](OC(C)(C)C)C(=O)O [Example 3, (S)-2-(tert-Butoxy)-2-(4-(4,4-dimethylpiperidin-1-yl)-5-(4-(4-fluorophenethoxy)phenyl)-2-methoxy-6-methylpyridin-3-yl)acetic acid] here?
Answer: 8 nM

Question: Cc1[nH]c(=O)c([C@H](OC(C)(C)C)C(=O)O)c(N2CCC(C)(C)CC2)c1-c1ccc(OCCc2ccc(F)cc2)cc1 [Example 4, (S)-2-(tert-butoxy)-2-(4-(4,4-dimethylpiperidin-1-yl)-5-(4-(4-fluorophenethoxy)phenyl)-6-methyl-2-oxo-1,2-dihydropyridin-3-yl)acetic acid] was tested. Which EC50 did it give?
Answer: 8 nM

Question: With Cc1nc(C#N)c([C@H](OC(C)(C)C)C(=O)O)c(N2CCC(C)(C)CC2)c1-c1ccc(OCCc2ccc(F)cc2)cc1 [Example 5, (S)-2-(tert-Butoxy)-2-(2-cyano-4-(4,4-dimethylpiperidin-1-yl)-5-(4-(4-fluorophenethoxy)phenyl)-6-methylpyridin-3-yl)acetic acid] as the compound, how does the EC50 read?
Answer: 7 nM

Question: For Cc1nc(C(N)=O)c([C@H](OC(C)(C)C)C(=O)O)c(N2CCC(C)(C)CC2)c1-c1ccc(OCCc2ccc(F)cc2)cc1 [Example 6, (S)-2-(tert-Butoxy)-2-(2-carbamoyl-4-(4,4-dimethylpiperidin-1-yl)-5-(4-(4-fluorophenethoxy)phenyl)-6-methylpyridin-3-yl)acetic acid], which EC50 is on record?
Answer: 14 nM

Question: CC1(C)CCN(c2c(-c3ccc(OCCc4ccc(F)cc4)cc3)cnc(CF)c2[C@H](OC(C)(C)C)C(=O)O)CC1 [Example 7, (S)-2-(tert-Butoxy)-2-(4-(4,4-dimethylpiperidin-1-yl)-2-(fluoromethyl)-5-(4-(4-fluorophenethoxy)phenyl)pyridin-3-yl)acetic acid] was tested. Which EC50 did it give?
Answer: 2 nM

Question: CC1(C)CCN(c2c(-c3ccc(OCCc4ccc(F)cc4)cc3)cnc(CO)c2[C@H](OC(C)(C)C)C(=O)O)CC1 [Example 8, (S)-2-(tert-Butoxy)-2-(4-(4,4-dimethylpiperidin-1-yl)-5-(4-(4-fluorophenethoxy)phenyl)-2-(hydroxymethyl)pyridin-3-yl)acetic acid] was tested. Which EC50 did it give?
Answer: 3 nM

Question: With Cc1nc(C(=O)NS(=O)(=O)C2CC2)c(-c2ccc(OCCc3ccc(F)cc3)cc2)c(N2CCC(C)(C)CC2)c1[C@H](OC(C)(C)C)C(=O)O [Example 9, (S)-2-(tert-Butoxy)-2-(6-((cyclopropylsulfonyl)carbamoyl)-4-(4,4-dimethylpiperidin-1-yl)-5-(4-(4-fluorophenethoxy)phenyl)-2-methylpyridin-3-yl)acetic acid] as the compound, how does the EC50 read?
Answer: 380 nM

Question: For Cc1nc(C(=O)N2CCS(=O)(=O)CC2)c(-c2ccc(OCCc3ccc(F)cc3)cc2)c(N2CCC(C)(C)CC2)c1[C@H](OC(C)(C)C)C(=O)O [Example 10, (S)-2-(tert-Butoxy)-2-(4-(4,4-dimethylpiperidin-1-yl)-6-(1,1-dioxidothiomorpholine-4-carbonyl)-5-(4-(4-fluorophenethoxy)phenyl)-2-methylpyridin-3-yl)acetic acid], which EC50 is on record?
Answer: 31 nM

Question: For Cc1nc(C(=O)N2CCC(C)(C)CC2)c(-c2ccc(OCCc3ccc(F)cc3)cc2)c(N2CCC(C)(C)CC2)c1[C@H](OC(C)(C)C)C(=O)O [Example 11, (S)-2-(tert-Butoxy)-2-(4-(4,4-dimethylpiperidin-1-yl)-6-(4,4-dimethylpiperidine-1-carbonyl)-5-(4-(4-fluorophenethoxy)phenyl)-2-methylpyridin-3-yl)acetic acid], which EC50 is on record?
Answer: 4 nM

Question: Cc1nc(C(=O)N[C@H]2CC[C@H](C)CC2)c(-c2ccc(OCCc3ccc(F)cc3)cc2)c(N2CCC(C)(C)CC2)c1[C@H](OC(C)(C)C)C(=O)O [Example 12, (S)-2-(tert-Butoxy)-2-(4-(4,4-dimethylpiperidin-1-yl)-5-(4-(4-fluorophenethoxy)phenyl)-2-methyl-6-(((1 r, 4S)-4-methylcyclohexyl)carbamoyl)pyridin-3-yl)acetic acid] was tested. Which EC50 did it give?
Answer: 4 nM

Question: Cc1nc(C(N)=O)c(-c2ccc(OCCc3ccc(F)cc3)cc2)c(N2CCC(C)(C)CC2)c1[C@H](OC(C)(C)C)C(=O)O [Example 13, (S)-2-(tert-Butoxy)-2-(6-carbamoyl-4-(4,4-dimethylpiperidin-1-yl)-5-(4-(4-fluorophenethoxy)phenyl)-2-methylpyridin-3-yl)acetic acid] was tested. Which EC50 did it give?
Answer: 10 nM

Question: With Cc1ncc(-c2ncc(OCCc3ccc(F)cc3)cn2)c(N2CCC(C)(C)CC2)c1[C@H](OC(C)(C)C)C(=O)O [Example 14, (S)-2-(tert-Butoxy)-2-(4-(4,4-dimethylpiperidin-1-yl)-5-(5-(4-fluorophenethoxy)pyrimidin-2-yl)-2-methylpyridin-3-yl)acetic acid] as the compound, how does the EC50 read?
Answer: 2 nM

Question: How did the EC50 turn out when COc1ccc(-c2cnc(C)c([C@H](OC(C)(C)C)C(=O)O)c2N2CCC(C)(C)CC2)nn1 [Example 15, (S)-2-(tert-Butoxy)-2-(4-(4,4-dimethylpiperidin-1-yl)-5-(6-methoxypyridazin-3-yl)-2-methylpyridin-3-yl)acetic acid] was run?
Answer: 16 nM

Question: Which EC50 does the source give for Cc1ncc(-c2cnc(OCCc3ccc(F)cc3)cn2)c(N2CCC(C)(C)CC2)c1[C@H](OC(C)(C)C)C(=O)O [Example 16, (S)-2-(tert-Butoxy)-2-(4-(4,4-dimethylpiperidin-1-yl)-5-(5-(4-fluorophenethoxy)pyrazin-2-yl)-2-methylpyridin-3-yl)acetic acid] here?
Answer: 2 nM

Question: How did the EC50 turn out when Cc1ncc(-c2ccc(OCCc3ccc(F)cc3)nn2)c(N2CCC(C)(C)CC2)c1[C@H](OC(C)(C)C)C(=O)O [Example 17, (S)-2-(tert-Butoxy)-2-(4-(4,4-dimethylpiperidin-1-yl)-5-(6-(4-fluorophenethoxy)pyridazin-3-yl)-2-methylpyridin-3-yl)acetic acid] was run?
Answer: 85 nM

Same assay, conditions: MT-2 cells infected with NL-RLuc virus, 5 days of incubation, 10% FBS, at least 2 experiments

Question: Cc1nc(N)c(-c2ccc(OCCc3ccc(F)cc3)c(F)c2F)c(N2CCC(C)(C)CC2)c1[C@H](OC(C)(C)C)C(=O)O (single isomer, unassigned) [Example 71] was tested. Which EC50 did it give?
Answer: 2 nM

Question: Cc1nc(C(C)O)c(-c2ccc(OCCc3ccc(F)cc3)c(F)c2)c(N2CCC(C)(C)CC2)c1[C@H](OC(C)(C)C)C(=O)O (single isomer, unassigned) [Example 237] was tested. Which EC50 did it give?
Answer: 3 nM

Question: With Cc1nc(C(C)(C)O)c(-c2ccc(OCCc3ccc(F)cc3)c(F)c2)c(N2CCC(C)(C)CC2)c1[C@H](OC(C)(C)C)C(=O)O (single isomer, unassigned) [Example 243] as the compound, how does the EC50 read?
Answer: 7 nM
